Source: patent publication US5665745A, “Heterocyclic compounds and their preparation and use” (Eli Lilly and Company, priority 1995, dated 1997)
Where two headings read alike, the source gives them in different places.

Assays:
[1] = molecular target: muscarinic acetylcholine receptors; test: inhibition of specific binding of ^3 H-Oxotremorine-M (^3 H-Oxo); parameters: species or system rat (male Wistar; settings: ^3 H-Oxotremorine 1.0 nM, rat cortex, 30 min. at 25° C.
Text: The pharmacological properties of the compounds of the invention can be illustrated by determining their capability to inhibit the specific binding of ^3 H-Oxotremorine-M (^3 H-Oxo). Birdsdall N. J. M., Hulme E. C., and Burgen A. S. V. (1980). "The Character of Muscarinic Receptors in Different Regions of the Rat Brain" Proc. Roy. Soc. London (Series B) 207,1.
^3 H-Oxo labels muscarinic receptor in the CNS (with a preference for agonist domains of the receptors). Three different sites are labeled by ^3 H-Oxo. […] Using the present experimental conditions only the high and medium affinity sites are determined.
The inhibitory effects of compounds on ^3 H-oxo binding reflects the affinity for muscarinic acetylcholine receptors.
(§1) All preparations are performed at 0°-4° C. unless otherwise indicated. Fresh cortex (0.1-1 g) from male Wistar rats (150-250 g) is homogenized for 5-10 seconds in 10 mL 20 nM Hepes pH: 7.4, with an Ultra-Turrax homogenizer. The homogenizer is rinsed with 10 mL of buffer and the combined suspension centrifuged for 15 min. at 40,000×g. The pellet is washed three times with buffer. In each step the pellet is homogenized as before in 2×10 mL of buffer and centrifuged for 10 min. at 40,000×g.
The final pellet is homogenized in 20 mM Hepes pH: 7.4 (100 mL per g of original tissue) and used for binding assay. Aliquots of 0.5 mL is added 25 μL of test solution and 25 μL of ^3 H-Oxotremorine (1.0 nM, final concentration) mixed and incubated for 30 min. at 25° C. Non-specific binding is determined in triplicate using arecoline ([…], final concentration) as the test substance. After incubation samples are added 5 mL of ice-cold buffer and poured directly onto Whatman GF/C glass fiber filters under suction and immediately washed 2 times with 5 mL of ice-cold buffer. The amount of radioactivity on the filters are determined by conventional liquid scintillation counting. Specific binding is total binding minus non specific binding.
Test substances are dissolved in 10 mL water (if necessary heated on a steam-bath for less than 5 min.) at a concentration of 2.2 mg/mL. […] The test value will be given as IC50 (the concentration (nM) of the test substance which inhibits the specific binding of ^3 H-oxo by 50%). IC50 =(applied test substance concentration) x(Cx /Co -Cx)nM where Co is specific binding in control assays and Cx is the specific binding in the test assay. (The calculations assume normal mass-action kinetics).

[2] = molecular target: T1, muscarinic receptors (M1 -site, pirenzepine sensitive site) (Rattus norvegicus, UniProt P08482); test: inhibition of ^3 HPRZ (pirenzepine, [N-methyl-^3 H]) binding to rat cerebral cortex membranes; parameters: species or system rat (male Wistar
T1 construct: from tissue; host or cells: cerebral cortex membranes of male Wistar rats
T1 sequence (P08482 1-460): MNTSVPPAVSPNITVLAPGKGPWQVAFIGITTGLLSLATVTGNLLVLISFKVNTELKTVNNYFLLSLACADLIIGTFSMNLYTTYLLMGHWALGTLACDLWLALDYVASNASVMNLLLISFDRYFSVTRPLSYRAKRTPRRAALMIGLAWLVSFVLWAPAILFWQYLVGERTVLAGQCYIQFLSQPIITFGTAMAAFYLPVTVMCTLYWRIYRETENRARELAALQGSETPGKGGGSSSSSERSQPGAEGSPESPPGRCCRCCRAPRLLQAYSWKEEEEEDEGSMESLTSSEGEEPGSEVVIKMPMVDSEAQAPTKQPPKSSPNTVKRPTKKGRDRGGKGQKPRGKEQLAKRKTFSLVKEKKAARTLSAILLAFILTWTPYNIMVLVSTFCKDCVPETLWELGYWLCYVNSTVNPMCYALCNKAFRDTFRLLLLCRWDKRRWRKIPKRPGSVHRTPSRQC
Procedure: Furthermore the pharmacological properties of the compounds of the invention can also be illustrated by determining their capability to inhibit ^3 HPRZ (pirenzepine, [N-methyl-^3 H]) binding to rat cerebral cortex membranes.
Pirenzepine binds selectively to subtype of muscarinic receptors. Historically the type is named the M1 -site, whereas pirenzepine sensitive site would be more appropriate.
as §1, with “cortex ([…])” for “cortex (0.1-1 g)”, “rats (150-200” for “rats (150-250”, “5-10 s” for “5-10 seconds”, “20 mM” for “20 nM”, “with 2×10” for “with 10”, “in 3×10” for “in 2×10”
The final pellet is homogenized in 20 mM Hepes pH: 7.4 (100 mL per g of original tissue) and used for binding assay. Aliquots of 0.5 mL is added 20 μl of test solution and 25 μL of ^3 HPRZ (1.0 nM, final conc.), mixed and incubated for 60 min. at 20° C. Non-specific binding is determined in triplicate using atropine (1 ,μg/mL, final conc.) as the test substance. After incubation samples are added 5 mL of ice-cold buffer and poured directly onto Whatman GF/C glass fiber filters under suction and immediately washed 2 times with 5 mL of ice-cold buffer. The amount of radioactivity on the filters are determined by conventional liquid scintillation counting. Specific binding is total binding minus non-specific binding.
Test substances are dissolved in 10 mL water, at a concentration of 0.22 mg/mL.
The test value will be given as IC50 (the concentration (nM) of the test substance which inhibits the specific binding of ^3 HPRZ by 50%). IC50 =(applied test substance concentration) x(Cx /Co -Cx)nM where Co is specific binding in control assays and Cx is the specific binding in the test assay. (The calculations assume normal mass-action kinetics).

[3] = ^3 HPRZ 1.0 nM, rat cortex, 60 min. at 20° C., read-out: ^3 HPRZ IC50 (head from b208 on: Pir IC-50)

Q: Which results are given for `CCCCNc1nsnc1OC1CN2CCC1CC2` (racemic) [Compound 75, 3-(1-Butylamino)-4-[(+,-)-3-(azabicyclo[2.2.2]octyloxy)]-1,2,5-thiadiazole]?
A: IC50 [1]: 65 nM; IC50 [2, 3]: 128 nM

Q: `CSCCc1nsnc1OC1CN2CCC1CC2` (racemic) [Compound 99, (±)-3-(2-Methylthioethyl)-4-(1-azabicyclo[2.2.2]octyl-3-oxy)-1,2,5-thiadiazole] was tested. Which IC50 [1] did it give?
A: The IC50 was 41 nM.

Q: What about the IC50 [2] of the same molecule?
A: The IC50 was 70 nM.

Q: Which IC50 [1] does the source give for `c1nsnc1OC1CN2CCC1CC2` (racemic) [Compound 100, (±)-3-(1-azabicyclo[2.2.2]octyl-3-oxy)-1,2,5-thiadiazole] here?
A: Its IC50 is 873 nM.

Q: And the IC50 [2, 3]?
A: The IC50 was 846 nM.

Q: Which IC50 [1] does the source give for `CCCCCCc1nsnc1OC1CN2CCC1CC2` (racemic) [Compound 101, (±)-3-Hexyl-4-(1-azabicyclo[2.2.2]octyl-3-oxy)-1,2,5-thiadiazole] here?
A: The IC50 was 88 nM.

Q: What about the IC50 [2] of the same molecule?
A: Its IC50 is 36 nM.

Q: `CCCCS(=O)(=O)c1nsnc1OC1CN2CCC1CC2` (racemic) [Compound 102, (±)-3-Butylsulfonyl-4-(1-azabicyclo[2.2.2]octyl-3-oxy)-1,2,5-thiadiazole] was tested. Which IC50 [1] did it give?
A: The IC50 was 378 nM.

Q: What about the IC50 [2, 3] of the same molecule?
A: Its IC50 is 187 nM.

Q: With `CCCS(=O)(=O)c1nsnc1OC1CN2CCC1CC2` (racemic) [Compound 103, (±)-3-propylsulfonyl-4-(1-azabicyclo[2.2.2]octyl-3-oxy)-1,2,5-thiadiazole] as the molecule, how does the IC50 [1] read?
A: Its IC50 is 107 nM.

Q: What about the IC50 [2, 3] of the same molecule?
A: Its IC50 is 115 nM.

Q: How did the IC50 [1] turn out when `FC(F)(F)CCCOc1nsnc1OC1CN2CCC1CC2` (racemic) [Compound 104, (±)-3-(4,4,4-Trifluorobutyloxy)-4-(1-azabicyclo[2.2.2]octyl-3-oxy)-1,2,5-thiadiazole] was run?
A: The IC50 was 107 nM.

Q: And the IC50 [2, 3]?
A: Its IC50 is 115 nM.

Q: Which IC50 [1] does the source give for `CC#CCOc1nsnc1OC1CN2CCC1CC2` (racemic) [Compound 105, (±)-3-(2-butynyloxy)-4-(1-azabicyclo[2.2.2]octyl-3-oxy)-1,2,5-thiadiazole] here?
A: The IC50 was 7.9 nM.

Q: What about the IC50 [2] of the same molecule?
A: The IC50 was 65.6 nM.

Q: Which IC50 [1] does the source give for `C1CC1COc1nsnc1OC1CN2CCC1CC2` (racemic) [Compound 106, (±)-3-(Cyclopropylmethoxy)-4-(1-azabicyclo[2.2.2]octyl-3-oxy)-1,2,5-thiadiazole] here?
A: The IC50 was 9.5 nM.

Q: And the IC50 [2]?
A: The IC50 was 95.4 nM.

Q: For `C(#Cc1ccccc1)COc1nsnc1OC1CN2CCC1CC2` (racemic) [Compound 107, (±)-3-(3-phenylpropynyloxy)-4-(1-azabicyclo[2.2.2]octyl-3-oxy)-1,2,5-thiadiazole], which IC50 [1] is on record?
A: The IC50 was 9.6 nM.

Q: And the IC50 [2]?
A: Its IC50 is 22.4 nM.

Q: What does the source list for `C=CCCOc1nsnc1OC1CN2CCC1CC2` (racemic) [Compound 108, (±)-3-(3-Butenyloxy)-4-(1-azabicyclo[2.2.2]octyl-3-oxy)-1,2,5-thiadiazole]?
A: IC50 [1]: 9.1 nM; IC50 [2]: 56.1 nM

Q: Which results are given for `COCCOc1nsnc1OC1CN2CCC1CC2` (racemic) [Compound 111, (±)-3-(2-Methoxyethoxy)-4-(1-azabicyclo[2.2.2]octyl-3-oxy)-1,2,5-thiadiazole]?
A: IC50 [1]: 38 nM; IC50 [2]: 85 nM

Q: What does the source list for `c1ccc(OCCOc2nsnc2OC2CN3CCC2CC3)cc1` (racemic) [Compound 112, (±)-3-(2-Phenoxyethoxy)-4-(1-azabicyclo[2.2.2]octyl-3-oxy)-1,2,5-thiadiazole]?
A: IC50 [1]: 16 nM; IC50 [2, 3]: 153 nM

Q: `C#CCCOc1nsnc1OC1CN2CCC1CC2` (racemic) [Compound 113, (±)-3-(3-butynoxy)-4-(1-azabicyclo[2.2.2]octyl-3-oxy)-1,2,5-thiadiazole] was tested. Which IC50 [1] did it give?
A: Its IC50 is 3.6 nM.

Q: What about the IC50 [2] of the same molecule?
A: The IC50 was 23 nM.

Q: `C(CC1CC1)Oc1nsnc1OC1CN2CCC1CC2` (racemic) [Compound 114, (±)-3-(2-Cyclopropylethoxy)-4-(1-azabicyclo[2.2.2]octyl-3-oxy)-1,2,5-thiadiazole] was tested. Which IC50 [1] did it give?
A: Its IC50 is 9.3 nM.

Q: What about the IC50 [2] of the same molecule?
A: Its IC50 is 43 nM.

Q: Which results are given for `CSCCOc1nsnc1OC1CN2CCC1CC2` (racemic) [Compound 115, (±)-3-(2-(Methylthio)ethoxy)-4-(1-azabicyclo[2.2.2]octyl-3-oxy)-1,2,5-thiadiazole]?
A: IC50 [1]: 19 nM; IC50 [2, 3]: 532 nM

Q: What does the source list for `ClCCCOc1nsnc1OC1CN2CCC1CC2` (racemic) [Compound 116, (±)-3-(3-Chloropropoxy)-4-(1-azabicyclo[2.2.2]octyl-3-oxy)-1,2,5-thiadiazole]?
A: IC50 [1]: 14 nM; IC50 [2]: 33 nM

Q: `FCCCCOc1nsnc1OC1CN2CCC1CC2` (racemic) [Compound 117, (±)-3-(4-Fluorobutyloxy)-4-(1-azabicyclo[2.2.2]octyl-3-oxy)-1,2,5-thiadiazole] was tested. Which IC50 [1] did it give?
A: The IC50 was 32 nM.

Q: And the IC50 [2, 3]?
A: The IC50 was 238 nM.

Q: What does the source list for `Clc1ccc(OCCOc2nsnc2OC2CN3CCC2CC3)cc1` (racemic) [Compound 118, (±)-3-(2-[4-Chlorophenoxy]ethoxy)-4-(1-azabicyclo[2.2.2]octyl-3-oxy)-1,2,5-thiadiazole]?
A: IC50 [1]: 7.2 nM; IC50 [2]: 70 nM

Q: Which IC50 [1] does the source give for `COc1ccc(CCCOc2nsnc2OC2CN3CCC2CC3)cn1` (racemic) [Compound 119, (±)-3-(3-[2-Methoxy-5-pyridyl]propyloxy)-4-(1-azabicyclo[2.2.2]octyl-3-oxy)-1,2,5-thiadiazole] here?
A: Its IC50 is 17 nM.

Q: What about the IC50 [2, 3] of the same molecule?
A: The IC50 was 124 nM.

Q: Which results are given for `Fc1ccc(OCCOc2nsnc2OC2CN3CCC2CC3)cc1` (racemic) [Compound 121, (±)-3-(2-[4-Fluorophenoxy]ethoxy)-4-(1-azabicyclo[2.2.2]octyl-3-oxy)-1,2,5-thiadiazole]?
A: IC50 [1]: 12 nM; IC50 [2, 3]: 146 nM

Q: Which IC50 [1] does the source give for `C=CCCCOc1nsnc1OC1CN2CCC1CC2` (racemic) [Compound 122, (±)-3-(4-pentenyloxy)-4-(1-azabicyclo[2.2.2]octyl-3-oxy)-1,2,5-thiadiazole] here?
A: Its IC50 is 11 nM.

Q: What about the IC50 [2] of the same molecule?
A: The IC50 was 45 nM.

Q: For `FCCCOc1nsnc1OC1CN2CCC1CC2` (racemic) [Compound 123, (±)-3-(3-Fluoropropyloxy)-4-(1-azabicyclo[2.2.2]octyl-3-oxy)-1,2,5-thiadiazole], which IC50 [1] is on record?
A: The IC50 was 42 nM.

Q: And the IC50 [2, 3]?
A: The IC50 was 106 nM.

Q: How did the IC50 [1] turn out when `C1CC(COc2nsnc2OC2CN3CCC2CC3)C1` (racemic) [Compound 124, (±)-3-(Cyclobutylmethoxy)-4-(1-azabicyclo[2.2.2]octyl-3-oxy)-1,2,5-thiadiazole] was run?
A: The IC50 was 5.8 nM.

Q: What about the IC50 [2] of the same molecule?
A: The IC50 was 54 nM.

Q: Which IC50 [1] does the source give for `FC(F)(F)C(F)(F)COc1nsnc1OC1CN2CCC1CC2` (racemic) [Compound 125, (±)-3-(3,3,3,2,2-Pentafluoropropyloxy)-4-(1-azabicyclo[2.2.2]octyl-3-oxy)-1,2,5-thiadiazole] here?
A: The IC50 was 36 nM.

Q: What about the IC50 [2, 3] of the same molecule?
A: Its IC50 is 191 nM.
